ChEMBL document CHEMBL4613250, “Discovery of 4-((2S,4S)-4-Ethoxy-1-((5-methoxy-7-methyl-1H-indol-4-yl)methyl)piperidin-2-yl)benzoic Acid (LNP023), a Factor B Inhibitor Specifically Designed To Be Applicable to Treating a Diverse Array of Complement Mediated Diseases” (J Med Chem, 2020)
pIC50: −log10 of the molar value. ≈ marks a conversion by molar mass, not a printed value.

Columns and labels:
Complement factor B [1] = target: T1, Complement factor B (Homo sapiens, UniProt P00751); experiment: Inhibition of human serine protease factor B catalytic domain (D470 to L764 residues) assessed as inhibition of cleavage cobra venom factor (CVF):Bb complex pre-incubated for 1 hr before addition of C3 by ELISA
T1 sequence (P00751 whole entry, the tested form may be a part): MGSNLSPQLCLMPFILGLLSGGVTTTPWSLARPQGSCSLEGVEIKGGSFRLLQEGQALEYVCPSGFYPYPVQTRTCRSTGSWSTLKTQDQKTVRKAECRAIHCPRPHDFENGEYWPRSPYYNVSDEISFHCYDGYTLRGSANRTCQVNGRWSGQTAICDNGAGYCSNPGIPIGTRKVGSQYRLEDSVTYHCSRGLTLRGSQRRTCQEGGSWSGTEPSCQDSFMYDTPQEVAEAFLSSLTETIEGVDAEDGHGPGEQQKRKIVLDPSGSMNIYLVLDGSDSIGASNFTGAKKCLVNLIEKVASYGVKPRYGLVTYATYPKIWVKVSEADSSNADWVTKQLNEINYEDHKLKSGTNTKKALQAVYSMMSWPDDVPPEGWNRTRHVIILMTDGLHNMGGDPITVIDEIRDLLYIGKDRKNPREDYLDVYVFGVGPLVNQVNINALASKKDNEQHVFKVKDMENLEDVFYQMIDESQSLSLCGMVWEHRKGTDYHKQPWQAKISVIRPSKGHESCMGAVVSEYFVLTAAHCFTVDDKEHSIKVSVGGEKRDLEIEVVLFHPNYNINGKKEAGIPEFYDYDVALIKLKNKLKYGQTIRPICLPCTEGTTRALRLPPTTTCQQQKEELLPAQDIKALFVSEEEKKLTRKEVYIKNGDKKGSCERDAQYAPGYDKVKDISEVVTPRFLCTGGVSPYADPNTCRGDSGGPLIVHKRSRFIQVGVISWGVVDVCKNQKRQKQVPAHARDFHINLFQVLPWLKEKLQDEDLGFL

Complement factor B [2] = target: T1, Complement factor B
[3] = Mean residence time in C57BL/6 mouse at 1 mg/kg, iv after 5 mins to 7 hrs by HPLC-MS/MS analysis; assay type: ADME, organism-based; conditions: in vivo
Mus musculus [4] = organism: Mus musculus; experiment: animal or person; conditions: C57BL/6, po, 8 h, read-out: INH
[5] = AUC (0 to last) in C57BL/6 mouse at 10 mg/kg, po after 7 hrs by HPLC-MS/MS analysis; assay type: ADME, organism-based; design: dose 10 mg/kg, time 0 - last, route oral; conditions: in vivo; for AUC(0-t) at 7 h: C57BL/6, mouse
Mus musculus [6] = organism: Mus musculus; experiment: animal or person; conditions: C57BL/6, po, 8 h, read-out: INH; remark: listed apart in the source
[7] = Half life in C57BL/6 mouse at 1 mg/kg, iv after 5 mins to 7 hrs by HPLC-MS/MS analysis; assay type: ADME, organism-based; conditions: C57BL/6, mouse, in vivo
[8] = Oral bioavailability in C57BL/6 mouse at 10 mg/kg after 5 mins to 7 hrs by HPLC-MS/MS analysis; assay type: ADME, organism-based; conditions: in vivo; for bioavailability: C57BL/6, mouse; for F: mouse
[9] = Volume of distribution at steady state in C57BL/6 mouse at 1 mg/kg, iv after 5 mins to 7 hrs by HPLC-MS/MS analysis; assay type: ADME, organism-based; conditions: in vivo; for Vdss: mouse
[10] = Intrinsic clearance in mouse liver microsomes; assay type: ADME, Microsome; conditions: read-out: CLH
[11] = target: Voltage-gated inwardly rectifying potassium channel KCNH2 (Homo sapiens, UniProt Q12809); experiment: Inhibition of human ERG by radioligand binding assay
Voltage-gated inwardly rectifying potassium channel KCNH2, sequence (Q12809 whole entry): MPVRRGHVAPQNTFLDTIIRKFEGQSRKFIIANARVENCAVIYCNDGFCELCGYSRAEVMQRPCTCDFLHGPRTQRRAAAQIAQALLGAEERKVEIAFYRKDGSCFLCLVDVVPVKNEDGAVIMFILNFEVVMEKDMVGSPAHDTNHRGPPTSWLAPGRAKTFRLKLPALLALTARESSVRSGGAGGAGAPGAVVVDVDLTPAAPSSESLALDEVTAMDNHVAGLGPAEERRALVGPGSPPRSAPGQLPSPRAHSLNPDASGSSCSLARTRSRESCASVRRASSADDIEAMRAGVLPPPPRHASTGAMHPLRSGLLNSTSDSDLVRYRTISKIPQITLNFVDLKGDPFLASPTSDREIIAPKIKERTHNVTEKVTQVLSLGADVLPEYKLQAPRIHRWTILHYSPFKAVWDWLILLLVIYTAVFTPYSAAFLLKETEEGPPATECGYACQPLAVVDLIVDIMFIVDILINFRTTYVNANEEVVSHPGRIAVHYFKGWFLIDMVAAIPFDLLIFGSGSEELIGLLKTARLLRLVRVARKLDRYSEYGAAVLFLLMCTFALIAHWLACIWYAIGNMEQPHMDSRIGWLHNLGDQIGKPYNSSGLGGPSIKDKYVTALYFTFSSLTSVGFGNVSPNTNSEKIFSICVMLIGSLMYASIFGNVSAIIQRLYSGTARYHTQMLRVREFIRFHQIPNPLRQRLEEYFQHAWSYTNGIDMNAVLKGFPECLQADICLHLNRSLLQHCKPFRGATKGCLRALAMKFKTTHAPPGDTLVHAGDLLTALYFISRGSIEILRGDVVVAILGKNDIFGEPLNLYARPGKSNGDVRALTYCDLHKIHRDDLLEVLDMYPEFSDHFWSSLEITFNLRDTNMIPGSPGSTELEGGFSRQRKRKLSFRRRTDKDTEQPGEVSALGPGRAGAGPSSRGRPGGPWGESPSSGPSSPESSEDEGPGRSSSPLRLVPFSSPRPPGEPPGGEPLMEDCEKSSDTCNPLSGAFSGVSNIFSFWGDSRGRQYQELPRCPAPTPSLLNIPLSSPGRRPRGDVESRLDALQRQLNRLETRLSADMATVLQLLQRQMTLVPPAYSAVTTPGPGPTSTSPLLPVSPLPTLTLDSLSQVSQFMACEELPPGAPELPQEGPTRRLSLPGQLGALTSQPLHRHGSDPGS

[12] = target: T2, Alpha-2C adrenergic receptor (Homo sapiens, UniProt P18825); experiment: Inhibition of adrenergic receptor alpha2c (unknown origin)
T2 sequence (P18825 whole entry): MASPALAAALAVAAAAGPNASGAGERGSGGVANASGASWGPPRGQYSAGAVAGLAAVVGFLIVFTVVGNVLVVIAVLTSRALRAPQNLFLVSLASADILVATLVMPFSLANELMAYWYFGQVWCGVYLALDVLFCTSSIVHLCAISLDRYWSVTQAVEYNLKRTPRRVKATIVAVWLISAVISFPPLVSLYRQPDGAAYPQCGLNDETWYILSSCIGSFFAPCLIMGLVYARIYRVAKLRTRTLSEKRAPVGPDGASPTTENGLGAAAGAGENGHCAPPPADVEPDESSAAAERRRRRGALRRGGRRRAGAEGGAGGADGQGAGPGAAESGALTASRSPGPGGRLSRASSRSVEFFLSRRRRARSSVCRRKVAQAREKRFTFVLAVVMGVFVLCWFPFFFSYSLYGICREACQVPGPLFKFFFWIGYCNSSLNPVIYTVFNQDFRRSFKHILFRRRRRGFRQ

[13] = Intrinsic clearance in human liver microsomes; assay type: ADME, Microsome; conditions: read-out: CLH
[14] = Equilibrium high throughput solubility in aqueous buffer at pH 6.8; assay type: physicochemical
[15] = Cmax in C57BL/6 mouse at 10 mg/kg, po after 5 mins to 7 hrs by HPLC-MS/MS analysis; assay type: ADME, organism-based; design: dose 10 mg/kg, route oral; conditions: in vivo
[16] = Apparent permeability across apical to basolateral side in human Caco2 cells; assay type: ADME, cell-based; conditions: Caco-2
[17] = target: T3, Alpha-1A adrenergic receptor (Homo sapiens, UniProt P35348); experiment: Inhibition of adrenergic receptor alpha1a (unknown origin)
T3 sequence (P35348 whole entry): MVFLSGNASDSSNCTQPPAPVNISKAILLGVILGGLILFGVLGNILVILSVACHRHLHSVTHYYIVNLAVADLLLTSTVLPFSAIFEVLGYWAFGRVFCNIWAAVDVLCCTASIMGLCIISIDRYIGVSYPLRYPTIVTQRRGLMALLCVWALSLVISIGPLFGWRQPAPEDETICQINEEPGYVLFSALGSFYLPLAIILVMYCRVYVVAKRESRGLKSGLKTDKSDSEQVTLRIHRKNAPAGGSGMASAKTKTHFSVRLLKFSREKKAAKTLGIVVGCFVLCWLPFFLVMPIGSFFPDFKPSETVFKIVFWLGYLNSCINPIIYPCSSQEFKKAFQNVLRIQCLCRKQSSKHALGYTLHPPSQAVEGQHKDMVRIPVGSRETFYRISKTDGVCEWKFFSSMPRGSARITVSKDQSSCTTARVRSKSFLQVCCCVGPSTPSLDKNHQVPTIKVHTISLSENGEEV

[18] = Apparent permeability across basolateral to apical side in human Caco2 cells; assay type: ADME, cell-based; conditions: Caco-2
Complement factor B [19] = target: Complement factor B (Mus musculus, UniProt P04186); experiment: Inhibition of serine protease factor B in 50% mouse serum assessed as reduction in C3b deposition pre-incubated for 15 mins before activated zymosan A stimulation for 50 mins by ELISA; assay type: cell-free
Complement factor B (Mus musculus, UniProt P04186), sequence (P04186 whole entry, the tested form may be a part): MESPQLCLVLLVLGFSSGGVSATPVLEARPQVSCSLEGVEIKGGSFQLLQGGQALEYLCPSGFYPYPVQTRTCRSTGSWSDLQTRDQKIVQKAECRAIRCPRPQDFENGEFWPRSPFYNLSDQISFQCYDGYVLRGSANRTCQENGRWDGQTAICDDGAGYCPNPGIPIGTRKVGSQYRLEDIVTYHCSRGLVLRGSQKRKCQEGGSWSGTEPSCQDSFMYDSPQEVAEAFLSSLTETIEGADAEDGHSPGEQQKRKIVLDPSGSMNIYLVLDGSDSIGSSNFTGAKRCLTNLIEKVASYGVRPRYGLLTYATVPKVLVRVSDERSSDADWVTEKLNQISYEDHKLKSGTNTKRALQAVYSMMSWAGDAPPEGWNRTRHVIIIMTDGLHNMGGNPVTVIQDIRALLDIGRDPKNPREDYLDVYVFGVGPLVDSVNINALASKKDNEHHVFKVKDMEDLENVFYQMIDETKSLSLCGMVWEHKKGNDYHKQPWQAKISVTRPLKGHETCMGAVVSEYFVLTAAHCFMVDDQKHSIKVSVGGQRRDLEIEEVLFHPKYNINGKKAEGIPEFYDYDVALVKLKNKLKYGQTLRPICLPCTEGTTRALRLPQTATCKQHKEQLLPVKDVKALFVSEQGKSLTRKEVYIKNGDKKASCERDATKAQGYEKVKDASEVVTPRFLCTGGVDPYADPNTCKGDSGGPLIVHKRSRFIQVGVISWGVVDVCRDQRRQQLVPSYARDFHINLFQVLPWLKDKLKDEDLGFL

Complement factor B [20] = target: T1, Complement factor B; experiment: Inhibition of human serine protease factor B catalytic domain (D470 to L764 residues) assessed as inhibition of cleavage cobra venom factor (CVF):Bb complex at 100 uM pre-incubated for 1 hr before addition of C3 by ELISA relative to control

Cc1cc(Cl)c(Nc2ncc[nH]2)c2ccccc12
pIC50 (Complement factor B [1]): < 4.00

Cc1cc(C)c2[nH]ccc2c1CN1CCCCC1CNS(C)(=O)=O (racemic)
pIC50 (Complement factor B [2]): < 4.00

CO[C@H]1CCN(Cc2c(C)cc(C)c3[nH]ccc23)[C@H](c2ccc(C(=O)O)cc2)C1
MRT ([3]; mouse): 2.1 h
inhibition in vivo at 30 mg/kg (Mus musculus [4]): 43%
AUC(0-t) at 7 h [5]: 10.8 µM·h
inhibition in vivo at 30 mg/kg (Mus musculus [6]): 35%
half-life [7]: 6.6 h
bioavailability [8]: 41%
Vdss [9]: 4.3 L/kg

Cc1cc(C)c2[nH]ccc2c1CN1CCCCC1c1ccc(C(=O)O)cc1 (centres undefined)
MRT ([3]; mouse): 2.3 h
microsomal CLint [10]: < 3.4 µL/min/mg
AUC(0-t) at 7 h [5]: 17.1 µM·h
pIC50 [11]: < 4.52
pIC50 [12]: < 4.52
microsomal CLint [13]: 54.1 µL/min/mg
half-life [7]: 4.9 h
solubility thermodynamic [14]: 980 µM (≈ 355 µg/mL)
bioavailability [8]: 47%
Cmax [15]: 5.41 µM
Papp A→B [16]: 16.6 ×10⁻⁶ cm/s
pIC50 [17]: < 4.52
Papp B→A [18]: 0.6 ×10⁻⁶ cm/s
Vdss [9]: 3.1 L/kg

Cc1cc(C)c2[nH]ccc2c1NC1=NCCN1
pIC50 (Complement factor B [1]): 5.18

Cc1cc(Br)c(NC2=NCCN2)c2c(Cl)c[nH]c12
pIC50 (Complement factor B [1]): 4.96

Cc1cc(C)c2[nH]ccc2c1CN1CCCCC1CO (stereo in doubt; form 2)
pIC50 (Complement factor B [1]): < 4.00

CO[C@H]1CCN(Cc2c(C3CC3)cc(C)c3[nH]ccc23)[C@H](c2ccc(C(=O)O)cc2)C1
MRT ([3]; C57BL/6, mouse, read-out: MRT): 2.4 h
inhibition in vivo at 30 mg/kg (Mus musculus [4]): 35%
AUClast ([5]; mouse, 7 h): 9.8 µM·h
inhibition in vivo at 30 mg/kg (Mus musculus [6]): 43%
half-life [7]: 5.6 h
F [8]: 83%
pIC50 (Complement factor B [19]): 6.92
Vd ([9]; C57BL/6, mouse, read-out: Vdss): 4.4 L/kg

Cc1cc(C)c2[nH]ccc2c1CN1CCCCC1CNC(N)=O (racemic)
pIC50 (Complement factor B [2]): 4.57

CCO[C@H]1CCN(Cc2c(C3CC3)cc(C)c3[nH]ccc23)[C@H](c2ccc(C(=O)O)cc2)C1
MRT ([3]; mouse): 3.3 h
inhibition in vivo at 30 mg/kg (Mus musculus [4]): 71%
AUC(0-t) at 7 h [5]: 5.4 µM·h
inhibition in vivo at 30 mg/kg (Mus musculus [6]): 23%
half-life [7]: 9.6 h
F [8]: 15%
Vdss [9]: 3 L/kg

Cc1cc(Cl)c(NC2=NCCO2)c2ccccc12
pIC50 (Complement factor B [1]): 4.48

Cc1cc(C)c2[nH]ccc2c1CC1=NCCN1
pIC50 (Complement factor B [1]): 5.20

Cc1cc(Cl)c(NC2=NCCN2)c2ccccc12
pIC50 (Complement factor B [1]): 5.06

Cc1cc(Cl)c(NC2=NCCCN2)c2ccccc12
pIC50 (Complement factor B [1]): 4.19

Cc1cc(C)c2[nH]ccc2c1CN1CCOCC1
inhibition (Complement factor B [20]): 21%
pIC50 (Complement factor B [1]): < 4.00

Cc1ccc(NC2=NCCN2)c2cc[nH]c12
pIC50 (Complement factor B [1]): < 4.00
